“Also recorded” adds a separate entry of the source. Where a SMILES comes first, the peptide text is derived from it. The star is where a group is joined. Tos = Cc1ccc(S(=O)(=O)*)cc1; CH2Cl = ClC*

The results in this text go back to publication PMC6304418, “A Novel Compound Targeting Protease Receptor 1 Activators for the Treatment of Glioblastoma” (Frontiers in Neurology, 2018).

Data set [1] in a line: SIXAC stability over time at 37°C, measured by its inhibition of thrombin. Particulars: 400 μM SIXAC incubated and sampled, read-out inhibition of 0.05 U/ml thrombin. It counts as physicochemical. As for the experimental part: Thrombin activity was assessed using a fluorogenic thrombin substrate (Bachem I-1560, excitation 360 nm; emission 465 nm). As previously described ([19], [36]), the reactions were carried out in a black 96-well microplate. All reactions were performed in Tris buffer (in mM: 150 NaCl, 1 CaCl2, 50 Tris-HCl: pH 8.0) and in the presence of endopeptidase inhibitors (0.1 mg/ml, bestatin hydrochloride—B8385, Sigma; 200 μM prolylendopeptidase inhibitor II, 537011, Merck Millipore) to eliminate the effect of widely abundant CNS endopeptidases on the assay. Known bovine thrombin concentrations (T-4648, Sigma) were used to create a calibration curve for each experiment. IC50 for inhibition of C6 glioma-generated thrombin activity by the molecules was measured in the medium secreted from the cells as described before ([19]). Briefly, C6 cells were seeded (5 × 10^4 cells/ml, 200 μl per well) and allowed to attach the well bottom for 24 h. […] The substrate was added and fluorescence was measured. […] Inhibition of commercial thrombin by SIXAC was measured by applying increasing concentrations of SIXAC (10^−12-10^−5M final concentration) to wells containing 0.05U/ml thrombin (final concentration). […] The sampled SIXAC was added to a constant concentration of thrombin (0.05 U/ml) and thrombin activity was measured. […] All other measures were calculated as a portion of the total activity.

Data set [2] deals with CNS-1 glioma cells. Kind of data set: CNS-1 glioma cell proliferation (XTT). It counts as cell-based, rat. Particulars: SIXAC 1 μM, 72 h, FCS-free medium, p < 0.03. As for the experimental part: CNS-1, C6, and U87 rat and human glioma cells were grown in Dulbecco's modified Eagle's medium (DMEM; Bet Haemek, Biological Industries, Israel) supplemented with 10% fetal bovine serum (Bet Haemek, Biological Industries, Israel) and 1% penicillin and streptomycin in a 5% CO2-humidified atmosphere.
Cell proliferation was evaluated using a 2.3-Bis-(2-methoxy-4-nitro-5-sulfophenyl)-2H-tetrazolium-5-carboxyanilide salt (XTT)-based cell proliferation assay kit (Bet Haemek, Biological Industries, Israel). U87 cells were seeded in 96-well plates (5 × 10^3 cells/well) and incubated for 24 h. The medium was then removed, the tested molecules (10^−13-10^−4 M final concentration) were added in FCS-free medium and introduced to the cells for 72 h. After choosing SIXAC as the leading molecule, it was tested in a similar way in CNS-1 cells (SIXAC 1 μM final concentration). XTT solution (50 μl) was added to each well and incubated for 3 h at 37°C. The optical density (OD) of each well was recorded at 450 and 630 nm in a microplate reader (Infinite M200, Tecan, Durham, NC, USA). Cell viability was expressed as the percentage (ODtest–ODblank)/(ODcontrol–ODblank), where ODtest is the optical density of cells exposed to SIXAC treatment, ODcontrol is the optical density of the control sample, and ODblank is the optical density of wells without glioma cells.

The test system of data set [3] is glioma cells (CNS-1). Kind of data set: Wound healing (wound-closure) assay. It counts as cell-based, rat. To be noted: SIXAC 1 μM, 4 h, FCS-free medium; control 10.14 ± 0.67%; p = 0.02. On the procedure: The effect of SIXAC on the coordinated movement of the glioma cells was evaluated using a wound healing assay. The cells were seeded in 24-well plates at a density of 5 × 10^4cells/well. Cells were cultures in FCS-free medium for 24 h. A wound was established by scraping using 10 μl pipette tip. Cells were washed twice with warm PBS and fresh FCS-free medium containing 1 μM SIXAC was added. Image acquisition of wound gap closure (%) was carried out following 4 h of incubation using a Nikon Eclipse microscope. Images were analyzed using Fiji software ([37]).

Data set [4] has as its system CNS-1 inoculated Lewis rats. Kind of data set: Survival study in CNS-1 GBM rat model. It counts as in vivo. As for the experimental part:
Adult Lewis rats (270–335 g, Harlan, Jerusalem, Israel) were housed in a standard conditions and fed a standard diet. Water was available ad libitum. Ambient temperature was set to 22°C to 23°C with day/night light control. The protocols of this study were approved by the Sheba Medical Center Committee on the Use and Care of Animals (permit No: 972/15) according to the ARRIVE Guidelines. Maximum efforts were made in order to minimize suffering and pain. The humane endpoints were the inability to rise or ambulate and a severe weight loss (20% of initial body weight).
The rats were anesthetized via IM injection of Ketamine-Xylazine (100 mg/kg, 16 mg/kg, respectively). A midline scalp incision was made, and a 1 mm burr hole was drilled (coordinates 1 mm lateral × 3 mm posterior to the Bregma). Tumor implantation was performed using a 30 gauge needle attached to a 25 μl syringe containing 10 μl of CNS-1 pellet 5 × 10^7cells/ml. The rats were positioned into a stereotactic frame in order to inject the cells at the right corpus striatum 5.5 mm deep in the brain tissue. […] The needle was gently pulled out 1 min after the pump was stopped. The burr hole was then sealed with bone wax and the skin was sutured.
The animals were implanted with osmotic pumps attached to brain infusion tube (Alzet, Cupertino, CA, USA). Implantation was performed 5 days after tumor inoculation. Two different types of osmotic pump were used: in the imaging study the pumps implanted released 1 μl/h for 7 days (model #2001), while in the survival study the pumps released 0.5 μl/h for 14 days (model #2002). The pumps were preloaded with either saline or SIXAC (in indicated concentrations). The pumps were primed in saline bath at 37°C for 24 h as a pre-implantation procedure and the function of each pump was reassured by assessing dripping. The Alzet pump was implanted subcutaneously, a catheter was placed intracranially thus releasing substances directly to the tumor core.
Rats were allocated to three groups. 1. Control group (n = 15) treated with alzet-pumps contain saline. 2. Moderate dose treated group (n = 16) treated with alzet-pump containing SIXAC (2μg/kg/day). 3. High dose treated group (n = 14) treated with alzet-pumps contain SIXAC (20μg/kg/day). Survival was registered daily and the brains were dissected immediately after death determination and were placed in 4% PFA and kept at 4°C. Upon MRI scanning the brains were moved to PBS containing tubes, scanning was performed and ROI were quantified.

As for `Cc1ccc(S(=O)(=O)N[C@@H](C)C(=O)N[C@H](C(=O)N[C@@H](CC(C)C)C(=O)N[C@@H](CC(=O)O)C(=O)N2CCC[C@H]2C(=O)N[C@@H](CCCNC(=N)N)C(=O)CCl)[C@@H](C)O)cc1` [SIXAC] (Tos-ATLDPR-CH2Cl), the “stability: time for which SIXAC was stable and significantly inhibited thrombin” value in data set [1] is at least 18 days. Besides, the “CNS-1 cell proliferation rate” value in data set [2] is reported as “significantly decrease proliferation rate (p < 0.03); also recorded: significantly decrease the CNS-1 cell proliferation rate”. The wound-closure percentage in data set [3] is 7.27 ± 0.68%. Besides, the “survival, combined SIXAC groups relative to controls (in words)” value in data set [4] (2μg/kg/day and 20μg/kg/day combined) is given as “robust effect of treatment”. Besides, in data set [4] (2μg/kg/day, log-rank test, one tailed p = 0.01), the “survival rate vs. saline, moderate dose (in words)” value was “significantly prolonged in comparison to the saline treated group”. Moreover, the “median survival, high dose” value in data set [4] (20μg/kg/day, intracranial Alzet pump, 14 days, n = 14, control 16 days, log-rank one tailed p < 0.05) was 17 days. The “survival rate vs. saline, high dose (in words)” value in data set [4] (20μg/kg/day, log-rank test, one tailed p < 0.05) is “less pronounced effect for the high dose group”. In addition, the “survival, trend over three groups (in words)” value in data set [4] (saline, 2μg/kg/day, 20μg/kg/day, log-rank test for trend p = 0.030) was “significant trend of prolonged survival”.
